Laboratory results published in ChEMBL document CHEMBL1123604 (J Med Chem, 1987).

Assays:
Canis familiaris [1] = assay: Change in heart rate(HR) in anesthetized dog; assay type: functional, Canis lupus familiaris
Canis familiaris [2] = assay: Change in mean arterial blood pressure(MAP) in anesthetized dog; assay type: functional, Canis lupus familiaris, Artery
Canis familiaris [3] = assay: Myocardial contractility in anesthetized dog by intravenous dose; assay type: functional; conditions: Canis lupus familiaris, Myocardium
[4] = Inhibition of Guinea Pig cAMP specific phosphodiesterase (PDE III)
[5] = as above; remark: listed apart in the source
Canis familiaris [6] = assay: Increased myocardial contractility (dP/dt max) in anesthetized dog at 6 mg/kg; assay type: functional, Canis lupus familiaris, Myocardium
Canis familiaris [7] = assay: Increased myocardial contractility (dP/dt max) in anesthetized dog at 2 mg/kg; assay type: functional, Canis lupus familiaris, Myocardium
Canis familiaris [8] = assay: Increased contractility (dP/dt max) in Conscious dog at peroral dose of 0.31 mg/kg; assay type: functional, Canis lupus familiaris; conditions: route oral
Canis familiaris [9] = assay: Percent change of heart rate in anesthetized dog at 0.1 mg/kg; assay type: functional, Canis lupus familiaris
Canis familiaris [10] = assay: Percent change of ventricular pressure in anesthetized dog at 0.31 mg/kg; assay type: functional, Canis lupus familiaris, Cardiac ventricle
Canis familiaris [11] = assay: Percent change in blood pressure in anesthetized dog at 0.31 mg/kg; assay type: functional, Canis lupus familiaris
Canis familiaris [12] = assay: Percent change of heart rate in anesthetized dog at 0.31 mg/kg; assay type: functional, Canis lupus familiaris
Canis familiaris [13] = assay: Percent change of ventricular pressure in anesthetized dog at 1 mg/kg; assay type: functional, Canis lupus familiaris, Cardiac ventricle
Canis familiaris [14] = assay: Percent change in blood pressure in anesthetized dog at 1 mg/kg; assay type: functional, Canis lupus familiaris
Canis familiaris [15] = assay: Percent change of heart rate in anesthetized dog at 1 mg/kg; assay type: functional, Canis lupus familiaris
Canis familiaris [16] = assay: Percent change of ventricular pressure in anesthetized dog at 0.01 mg/kg; assay type: functional, Canis lupus familiaris, Cardiac ventricle
Canis familiaris [17] = assay: Percent change in blood pressure in anesthetized dog at 0.01 mg/kg; assay type: functional, Canis lupus familiaris
Canis familiaris [18] = assay: Percent change of heart rate in anesthetized dog at 0.01 mg/kg; assay type: functional, Canis lupus familiaris
Canis familiaris [19] = assay: Percent change of ventricular pressure in anesthetized dog at 0.031 mg/kg; assay type: functional, Canis lupus familiaris, Cardiac ventricle
Canis familiaris [20] = assay: Percent change of heart rate in anesthetized dog at 0.031 mg/kg; assay type: functional, Canis lupus familiaris
Canis familiaris [21] = assay: Percent change of ventricular pressure in anesthetized dog at 0.1 mg/kg; assay type: functional, Canis lupus familiaris, Cardiac ventricle
Canis familiaris [22] = assay: Percent change in blood pressure in anesthetized dog at 0.031 mg/kg; assay type: functional, Canis lupus familiaris
Canis familiaris [23] = assay: Percent change in blood pressure in anesthetized dog at 0.1 mg/kg; assay type: functional, Canis lupus familiaris
Canis familiaris [24] = assay: Increased myocardial contractility (dP/dt max) in anesthetized dog at 8 mg/kg; assay type: functional, Canis lupus familiaris, Myocardium
Canis familiaris [25] = assay: Increased myocardial contractility (dP/dt max) in conscious dog at 0.31 mg/kg peroral dose, range 10-20; assay type: functional, Canis lupus familiaris, Myocardium; conditions: route oral
Canis familiaris [26] = assay: Increased myocardial contractility (dP/dt max) in conscious dog at 1 mg/kg peroral dose; assay type: functional, Canis lupus familiaris, Myocardium; conditions: route oral
Canis familiaris [27] = assay: Percent change in ventricular pressure in anesthetized dog at 0.031 mg/kg; assay type: functional, Canis lupus familiaris, Cardiac ventricle
Canis familiaris [28] = assay: Percent change in heart rate in anesthetized dog at 0.031 mg/kg; assay type: functional, Canis lupus familiaris
Canis familiaris [29] = assay: Percent change in ventricular pressure in anesthetized dog at 0.1 mg/kg; assay type: functional, Canis lupus familiaris, Cardiac ventricle
Canis familiaris [30] = assay: Increased myocardial contractility (dP/dt max) in anesthetized dog

`CC1C(=O)NN=C1c1ccc(-n2ccnc2)cc1` (stereo not drawn) gave a Change (Canis familiaris [1]) of 0%, a Change (Canis familiaris [2]) of 0% and an ED50 (Canis familiaris [3]) of over 1 mg/kg. For the same molecule, the IC50 [4] was 140 µM.

For `CCC1(CC)C(=O)NN=C1c1ccc(-n2ccnc2)cc1`, the Change (Canis familiaris [1]) was 0%, the Change (Canis familiaris [2]) was 0% and the ED50 (Canis familiaris [3]) was over 1 mg/kg. The IC50 [5] was 120 µM.

For `CC1(C)C(=O)NN=C1c1ccncc1`, the Change (Canis familiaris [1]) was 11%, the Change (Canis familiaris [2]) was 1% and the ED50 (Canis familiaris [3]) was 0.3 mg/kg.

With `O=C1NN=C(c2ccc(-n3ccnc3)cc2)C12CCCC2` the Change (Canis familiaris [1]) was 3.5%, the Change (Canis familiaris [2]) was -0.25% and the ED50 (Canis familiaris [3]) was 1 mg/kg. It also gave an IC50 [5] of 54 µM.

In the case of `CC1CC(O)=NN=C1c1ccc(-n2ccnc2)cc1` (stereo not drawn) [CI-930], the Dose (Canis familiaris [6]) is reported as 0.013 mg/kg.

`CCC1C(=O)NN=C1c1ccc(-n2ccnc2)cc1` (stereo not drawn) gave a Change (Canis familiaris [1]) of 0%, a Change (Canis familiaris [2]) of 0% and an ED50 (Canis familiaris [3]) of over 1 mg/kg. For the same molecule, the IC50 [5] was 270 µM.

Work on `O=C1CC(c2ccc(-n3ccnc3)cc2)=NN1` yielded a Change (Canis familiaris [1]) of 0%, a Change (Canis familiaris [2]) of 0% and an ED50 (Canis familiaris [3]) of over 1 mg/kg. The IC50 [5] was 590 µM.

For `CC1(C)CC(c2ccc(-n3ccnc3)cc2)=NNC1=O`, the Dose (Canis familiaris [7]) was 0.05 mg/kg.

With `CC1CC(c2ccc(-n3ccnc3)cc2)=NNC1=O` (stereo not drawn) the Dose (Canis familiaris [7]) was 0.5 mg/kg.

With `CC1(C)CC(=O)NN=C1c1ccc(-n2ccnc2)cc1` the Dose (Canis familiaris [7]) was 0.2 mg/kg.

Work on `CC1(C)C(=O)NN=C1c1ccc(-n2ccnc2)cc1` yielded a Change (Canis familiaris [8]) of 24%, a Change (Canis familiaris [9]) of 0.8% and a Change (Canis familiaris [10]) of 78%. For the same molecule, the Change (Canis familiaris [11]) was -20%, the Change (Canis familiaris [12]) was 9% and the Change (Canis familiaris [13]) was 100%. It also gave a Change (Canis familiaris [14]) of -34%, a Change (Canis familiaris [15]) of 14% and a Dose (Canis familiaris [6]) of 0.18 mg/kg. For the same molecule, the Change (Canis familiaris [16]) was 6%, the Change (Canis familiaris [17]) was -0.5% and the Change (Canis familiaris [18]) was 0%. It also gave a Change (Canis familiaris [19]) of 10%, a Change (Canis familiaris [20]) of 0.2% and a Change (Canis familiaris [21]) of 39%. The Change (Canis familiaris [22]) was -4%, the Change (Canis familiaris [23]) was -11% and the Change (Canis familiaris [1]) was 4.9%. The Change (Canis familiaris [2]) was -14%, the ED50 (Canis familiaris [3]) was 0.18 mg/kg and the IC50 [5] was 22 µM.

With `CSc1ccc(C2=NNC(=O)C2(C)C)cc1` the Change (Canis familiaris [1]) was 5%, the Change (Canis familiaris [2]) was -1% and the ED50 (Canis familiaris [3]) was 0.35 mg/kg.

In the case of `O=C1CCC(c2ccc(-n3ccnc3)cc2)=NN1` [IMAZODAN], the Change (Canis familiaris [9]) is reported as 6.2%, the Change (Canis familiaris [10]) is reported as 127.3% and the Change (Canis familiaris [11]) is reported as -13.2%. It also gave a Change (Canis familiaris [12]) of 19.2%, a Change (Canis familiaris [13]) of 146.7% and a Change (Canis familiaris [14]) of -22.4%. It also gave a Change (Canis familiaris [15]) of 33.8%, a Dose (Canis familiaris [24]) of 0.045 mg/kg and a Change (Canis familiaris [16]) of 10.2%. The Change (Canis familiaris [17]) was -0.7%, the Change (Canis familiaris [18]) was 0% and the Increase contractility (Canis familiaris [25]) was 10%. It also gave an Increase contractility (Canis familiaris [26]) of 40%, a Change (Canis familiaris [27]) of 37.2% and a Change (Canis familiaris [22]) of -4.1%. It also gave a Change (Canis familiaris [28]) of 5.6%, a Change (Canis familiaris [29]) of 74.2% and a Change (Canis familiaris [23]) of -5.3%. It also gave a Dose (Canis familiaris [30]) of 0.045 mg/kg.

With `CCC1(C)C(=O)NN=C1c1ccc(-n2ccnc2)cc1` (stereo not drawn) the Change (Canis familiaris [1]) was 17%, the Change (Canis familiaris [2]) was 6% and the ED50 (Canis familiaris [3]) was 0.37 mg/kg. It also gave an IC50 [5] of 52 µM.

`CC1(C)C(=O)NN=C1c1ccc(-n2cnc3c2CCCC3)cc1` showed a Change (Canis familiaris [1]) of 10%, a Change (Canis familiaris [2]) of -10% and an ED50 (Canis familiaris [3]) of 0.2 mg/kg. For the same molecule, the IC50 [5] was 3.2 µM.
